Reference: ChEMBL document CHEMBL5728427, “Apoptosis signal-regulating kinase 1 inhibitors and methods of use thereof” (2021)

Target: T1, Mitogen-activated protein kinase kinase kinase 5 (Homo sapiens, UniProt Q99683)
T1 sequence (Q99683 whole entry): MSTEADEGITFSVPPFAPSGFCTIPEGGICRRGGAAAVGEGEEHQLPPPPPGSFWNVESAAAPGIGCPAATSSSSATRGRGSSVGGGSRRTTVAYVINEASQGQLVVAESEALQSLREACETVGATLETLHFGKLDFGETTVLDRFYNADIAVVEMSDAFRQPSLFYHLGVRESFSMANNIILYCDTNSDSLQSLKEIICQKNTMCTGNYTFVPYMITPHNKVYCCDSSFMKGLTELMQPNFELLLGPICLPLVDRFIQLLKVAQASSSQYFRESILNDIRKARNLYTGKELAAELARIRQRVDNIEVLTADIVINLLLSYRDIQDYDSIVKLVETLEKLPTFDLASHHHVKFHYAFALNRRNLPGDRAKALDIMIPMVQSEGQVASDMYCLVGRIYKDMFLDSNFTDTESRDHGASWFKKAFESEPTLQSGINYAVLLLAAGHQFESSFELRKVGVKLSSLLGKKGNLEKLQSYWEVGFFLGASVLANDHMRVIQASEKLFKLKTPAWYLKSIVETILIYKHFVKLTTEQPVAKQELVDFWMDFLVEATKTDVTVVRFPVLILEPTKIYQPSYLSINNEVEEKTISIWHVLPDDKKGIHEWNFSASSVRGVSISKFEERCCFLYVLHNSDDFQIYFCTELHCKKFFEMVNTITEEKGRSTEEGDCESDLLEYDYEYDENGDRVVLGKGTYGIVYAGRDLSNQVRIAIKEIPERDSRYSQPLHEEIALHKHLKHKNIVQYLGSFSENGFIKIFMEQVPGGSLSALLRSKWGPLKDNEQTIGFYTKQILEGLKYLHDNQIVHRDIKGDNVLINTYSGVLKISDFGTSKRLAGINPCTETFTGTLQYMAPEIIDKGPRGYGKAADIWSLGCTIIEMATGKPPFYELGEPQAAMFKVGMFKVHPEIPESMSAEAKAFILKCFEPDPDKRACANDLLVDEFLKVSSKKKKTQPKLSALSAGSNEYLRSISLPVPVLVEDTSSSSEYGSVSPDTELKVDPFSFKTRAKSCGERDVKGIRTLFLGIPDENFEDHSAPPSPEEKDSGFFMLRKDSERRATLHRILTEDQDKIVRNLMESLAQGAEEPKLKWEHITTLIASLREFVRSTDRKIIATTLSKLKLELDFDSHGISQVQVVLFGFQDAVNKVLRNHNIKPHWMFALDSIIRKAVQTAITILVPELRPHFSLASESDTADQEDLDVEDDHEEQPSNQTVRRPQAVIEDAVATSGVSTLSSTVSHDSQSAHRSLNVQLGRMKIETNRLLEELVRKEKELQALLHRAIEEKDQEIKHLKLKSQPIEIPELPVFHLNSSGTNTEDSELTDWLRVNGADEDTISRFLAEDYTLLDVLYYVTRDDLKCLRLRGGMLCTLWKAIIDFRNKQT
Assay: HTRF KinEASE Assay: ASK1 was purchased from Thermofisher (Catalogue #PV4011), ATP was purchased from Sigma (Catalogue #A7699), HTRF® KinEASE™ Assay System was obtained from Cisbio (Bedford, Mass.). ½ Area plate was purchased from Perkin Elmer (Catalogue ##6005560). HTRF® KinEASE™-STK is a generic method for measuring serine/threonine kinase activities using a time-resolved fluorescence resonance energy transfer (TR-FRET) immunoassay. The IC50 value for each compound was determined in the presence of compound (various concentration from 0 to 10 μM) and a fixed amount of ATP and peptide substrates. The test compound, 1 uM STK3 peptide substrate, and 5 nM of ASK1 kinase are incubated with kinase reaction buffer containing 50 mM HEPES pH 7.5, 0.01% BRIJ-35, 10 mM MgCl2, and 1 mM EGTA for 30 minutes. 100 uM ATP is added to start kinase reaction and incubated for 3 hours. The STK3-antibody labeled with Eu3+-Cryptate and 125 nM streptavidin-XL665 are mixed in a single addition with stop reagents provided by the Cisbio kit used to stop the kinase reaction. Fluorescence is detected using an Envision Multilabeled 2014 reader from PerkinElmer. The Fluorescence is measured at 615 nm (Cryptate) and 665 nm (XL665) and a ratio of 665 nm/615 nm is calculated for each well. The resulting TR-FRET is proportional to the phosphorylation level. Staurosporine was used as the positive control.

IC50: > 1000 nM
SMILES: Cc1cc(F)c(C(=O)Nc2cccc(-n3cnnc3)n2)cc1-n1cnc(C2CC2)c1
